Laboratory results taken from the supplement of paper PMC6045584.
± gives the standard deviation of the averaged measurements.

Legend:
LENVATINIB = compound: COc1cc2nccc(Oc3ccc(NC(=O)NC4CC4)c(Cl)c3)c2cc1C(N)=O [LENVATINIB]; assay: surviving fraction relative to DMSO-only wells; higher = less growth inhibition; conditions: exposure time: 5 days
Outline: (§1)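 Surviving fraction was calculated by normalising CellTiter-Glo luminescence to the median of DMSO-only wells. Tumour cell lines in log phase were seeded in 384-well plates at 250–500 cells per well, and 24 hours later were exposed continuously for five days to inhibitors at 0.5, 1, 5, 10, 50, 100, 500 and 1000 nM.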

VORINOSTAT = compound: O=C(CCCCCCC(=O)Nc1ccccc1)NO [VORINOSTAT]; assay: as above; conditions: exposure time: 5 days
Outline: as §1

Test System	surviving fraction (LENVATINIB; 0.5 nM)	surviving fraction (LENVATINIB; 1 nM)	surviving fraction (LENVATINIB; 5 nM)	surviving fraction (LENVATINIB; 10 nM)	surviving fraction (LENVATINIB; 50 nM)	surviving fraction (LENVATINIB; 100 nM)	surviving fraction (LENVATINIB; 500 nM)	surviving fraction (LENVATINIB; 1000 nM)	surviving fraction (VORINOSTAT; 0.5 nM)	surviving fraction (VORINOSTAT; 1 nM)	surviving fraction (VORINOSTAT; 5 nM)	surviving fraction (VORINOSTAT; 10 nM)	surviving fraction (VORINOSTAT; 50 nM)	surviving fraction (VORINOSTAT; 100 nM)	surviving fraction (VORINOSTAT; 500 nM)	surviving fraction (VORINOSTAT; 1000 nM)
CASKI CERVIX	0.944 ± 0.077	0.98 ± 0.096	0.988 ± 0.014	1.01 ± 0.019	1.026 ± 0.0064	1.08 ± 0.063	0.985 ± 0.073	0.956 ± 0.073	0.88 ± 0.024	0.942 ± 0.062	0.957 ± 0.013	0.903 ± 0.029	0.971 ± 0.046	0.955 ± 0.034	0.496 ± 0.02	0.448 ± 0.027
SUM149.B1*.S BREAST	1.11 ± 0.031	1.15 ± 0.018	1.15 ± 0.03	1.11 ± 0.044	1.19 ± 0.029	1.15 ± 0.031	1.17 ± 0.052	1.14 ± 0.042	1.05 ± 0.026	0.971 ± 0.049	1.02 ± 0.047	0.845 ± 0.031	1.06 ± 0.038	1.05 ± 0.052	0.82 ± 0.038	0.523 ± 0.034
143B BONE	0.992 ± 0.0085	1.018 ± 0.0064	1.04 ± 0.022	1.01 ± 0.027	1.04 ± 0.012	1.05 ± 0.015	1.05 ± 0.022	1.05 ± 0.013	1.01 ± 0.0028	1.02 ± 0.011	1.053 ± 0.0014	1.01 ± 0.031	1.01 ± 0.03	1.02 ± 0.042	0.858 ± 0.11	0.835 ± 0.026
MDAMB436 BREAST	0.949 ± 0.032	1.01 ± 0.11	0.946 ± 0.04	0.976 ± 0.039	1.01 ± 0.11	0.907 ± 0.015	1.04 ± 0.077	0.932 ± 0.033	0.83 ± 0.045	0.905 ± 0.045	0.854 ± 0.056	0.911 ± 0.086	0.937 ± 0.081	0.835 ± 0.055	0.766 ± 0.072	0.582 ± 0.066
SNU475 LIVER	1.04 ± 0.069	1.04 ± 0.042	1.02 ± 0.07	1.03 ± 0.03	0.971 ± 0.045	1.03 ± 0.018	0.995 ± 0.037	1 ± 0.016	0.9603 ± 0.0081	0.944 ± 0.021	0.966 ± 0.028	0.831 ± 0.037	0.968 ± 0.027	0.941 ± 0.026	0.817 ± 0.018	0.556 ± 0.024
HELA CERVIX	1.06 ± 0.088	1.04 ± 0.095	1.05 ± 0.061	1.05 ± 0.071	1.17 ± 0.04	1.19 ± 0.1	1.19 ± 0.1	1.17 ± 0.044	0.955 ± 0.049	0.942 ± 0.066	0.972 ± 0.042	0.939 ± 0.07	1.07 ± 0.057	1.06 ± 0.064	1.11 ± 0.037	1.01 ± 0.092
93VU HEADNECK	1.05 ± 0.044	1.11 ± 0.074	1.09 ± 0.12	1.167 ± 0.0038	1.18 ± 0.087	1.19 ± 0.086	0.99 ± 0.036	1.11 ± 0.024	0.966 ± 0.02	1.06 ± 0.045	1.09 ± 0.087	1.08 ± 0.077	1.18 ± 0.093	1.1 ± 0.07	0.947 ± 0.035	0.731 ± 0.13
ZR751 BREAST	1.04 ± 0.12	0.964 ± 0.15	0.926 ± 0.035	0.84 ± 0.071	1.06 ± 0.092	1.1 ± 0.088	0.915 ± 0.23	1.04 ± 0.022	1.22 ± 0.18	1.23 ± 0.18	1.16 ± 0.12	1.08 ± 0.2	1.37 ± 0.13	1.4 ± 0.19	1.23 ± 0.16	1.04 ± 0.17
S68 BREAST	0.924 ± 0.35	0.961 ± 0.079	0.971 ± 0.29	1.18 ± 0.2	1.09 ± 0.091	1.1 ± 0.26	0.858 ± 0.34	1.16 ± 0.22	0.723 ± 0.22	0.82 ± 0.18	0.91 ± 0.38	0.998 ± 0.21	1.22 ± 0.28	1.07 ± 0.17	0.73 ± 0.19	0.384 ± 0.018
SCC003 HEADNECK	1.18 ± 0.074	1.1 ± 0.13	1.16 ± 0.12	1.1 ± 0.032	1.13 ± 0.1	1.18 ± 0.064	1.13 ± 0.051	1.1 ± 0.098	1 ± 0.086	1.01 ± 0.15	1.02 ± 0.1	1.01 ± 0.093	1.09 ± 0.067	1.12 ± 0.091	1.14 ± 0.12	0.847 ± 0.16
RDES SOFT TISSUE	1.33 ± 0.018	1.38 ± 0.032	1.15 ± 0.067	1.23 ± 0.083	1.28 ± 0.18	1.09 ± 0.14	1.09 ± 0.18	0.964 ± 0.25	1.21 ± 0.099	1.19 ± 0.13	1.2 ± 0.029	1.1 ± 0.02	1.05 ± 0.073	1.11 ± 0.12	0.831 ± 0.13	1.12 ± 0.39
VCAP PROSTATE	1.03 ± 0.038	1.04 ± 0.12	1.17 ± 0.15	1.12 ± 0.1	1.1 ± 0.11	1.17 ± 0.079	0.962 ± 0.097	0.97 ± 0.078	1.09 ± 0.082	1.12 ± 0.054	1.15 ± 0.015	1.17 ± 0.11	1.16 ± 0.11	0.994 ± 0.022	0.449 ± 0.017	0.261 ± 0.04
SG43 HEADNECK	0.959 ± 0.18	1.01 ± 0.3	0.772 ± 0.11	0.842 ± 0.098	0.84 ± 0.14	0.93 ± 0.24	1.13 ± 0.17	1.09 ± 0.11	1.08 ± 0.16	1.13 ± 0.12	0.836 ± 0.23	1.03 ± 0.21	0.949 ± 0.15	1.1 ± 0.033	1.04 ± 0.28	0.729 ± 0.21
CHLA90 AUTONOMIC GANGLIA	0.984 ± 0.039	0.999 ± 0.043	0.954 ± 0.05	1 ± 0.077	0.972 ± 0.049	0.939 ± 0.051	1.05 ± 0.043	1.04 ± 0.034	0.971 ± 0.026	1.08 ± 0.046	0.976 ± 0.013	0.839 ± 0.047	1.02 ± 0.052	0.982 ± 0.063	0.977 ± 0.022	0.844 ± 0.053
NY BONE	1.01 ± 0.073	1.04 ± 0.048	1.05 ± 0.048	1.02 ± 0.065	1.04 ± 0.045	1.05 ± 0.018	0.869 ± 0.023	0.674 ± 0.007	0.9877 ± 0.004	0.918 ± 0.029	0.973 ± 0.023	0.98 ± 0.033	1.037 ± 0.0042	0.916 ± 0.019	0.701 ± 0.012	0.448 ± 0.016
SCC36 HEADNECK	1.06 ± 0.041	1.12 ± 0.063	1.12 ± 0.18	1.21 ± 0.064	1.18 ± 0.044	1.08 ± 0.036	1.01 ± 0.044	1.05 ± 0.025	1.01 ± 0.084	0.977 ± 0.073	1.1 ± 0.024	1.06 ± 0.082	1.12 ± 0.1	1.14 ± 0.12	0.677 ± 0.038	0.589 ± 0.054
SUM159 BREAST	1.16 ± 0.15	1.15 ± 0.11	1.11 ± 0.096	1.13 ± 0.12	1.08 ± 0.034	1.04 ± 0.088	1.08 ± 0.021	1.08 ± 0.017	0.975 ± 0.087	0.932 ± 0.16	0.929 ± 0.16	0.928 ± 0.15	0.923 ± 0.24	0.882 ± 0.28	0.926 ± 0.17	0.77 ± 0.29
HCC1954 BREAST	0.904 ± 0.058	0.817 ± 0.05	1.0393 ± 0.00035	0.917 ± 0.04	0.993 ± 0.058	0.988 ± 0.011	1.03 ± 0.11	1.11 ± 0.067	0.802 ± 0.19	0.823 ± 0.26	1.07 ± 0.36	1.18 ± 0.13	1.345 ± 0.0064	1.37 ± 0.21	0.839 ± 0.022	0.42875 ± 0.00035
OS25HAL BONE	1.03 ± 0.026	1.026 ± 0.0067	1.01 ± 0.016	1.01 ± 0.05	0.98 ± 0.027	0.938 ± 0.025	0.895 ± 0.016	0.88 ± 0.021	0.987 ± 0.014	0.962 ± 0.015	0.991 ± 0.015	0.943 ± 0.033	1.046 ± 0.0047	1.03 ± 0.031	0.91 ± 0.011	0.498 ± 0.018
HCT15 LARGE INTESTINE	1.09 ± 0.031	1.08 ± 0.039	1.08 ± 0.031	1.09 ± 0.063	1.13 ± 0.052	1.17 ± 0.061	1.12 ± 0.028	1.14 ± 0.021	0.9863 ± 0.0055	0.938 ± 0.023	0.963 ± 0.044	0.867 ± 0.067	1.05 ± 0.028	1.06 ± 0.03	0.98 ± 0.019	0.674 ± 0.056
SCC47 HEADNECK	1.11 ± 0.068	1.02 ± 0.012	1.14 ± 0.021	1.14 ± 0.1	1.06 ± 0.024	1.11 ± 0.15	1.12 ± 0.081	1.08 ± 0.069	1.03 ± 0.04	1.03 ± 0.077	1.12 ± 0.034	1.02 ± 0.016	1.05 ± 0.023	1.1 ± 0.044	1.02 ± 0.083	0.897 ± 0.028
